Target: T1, FXR (Rattus norvegicus, UniProt Q62735)
T1 sequence (Q62735 1-469): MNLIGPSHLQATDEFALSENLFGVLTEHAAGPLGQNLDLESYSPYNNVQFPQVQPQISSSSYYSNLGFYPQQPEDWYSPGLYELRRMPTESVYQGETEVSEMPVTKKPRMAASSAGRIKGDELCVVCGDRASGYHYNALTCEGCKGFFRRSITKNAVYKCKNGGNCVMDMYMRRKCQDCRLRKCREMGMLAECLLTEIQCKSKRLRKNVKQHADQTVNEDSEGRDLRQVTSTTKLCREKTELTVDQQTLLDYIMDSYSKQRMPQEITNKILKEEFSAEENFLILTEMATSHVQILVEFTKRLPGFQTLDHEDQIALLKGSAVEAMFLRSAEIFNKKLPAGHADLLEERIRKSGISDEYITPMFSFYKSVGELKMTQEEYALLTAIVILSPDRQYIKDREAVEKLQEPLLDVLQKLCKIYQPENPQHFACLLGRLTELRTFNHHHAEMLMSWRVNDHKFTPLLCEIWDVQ
T1 sequence (P28700 1-467 partner): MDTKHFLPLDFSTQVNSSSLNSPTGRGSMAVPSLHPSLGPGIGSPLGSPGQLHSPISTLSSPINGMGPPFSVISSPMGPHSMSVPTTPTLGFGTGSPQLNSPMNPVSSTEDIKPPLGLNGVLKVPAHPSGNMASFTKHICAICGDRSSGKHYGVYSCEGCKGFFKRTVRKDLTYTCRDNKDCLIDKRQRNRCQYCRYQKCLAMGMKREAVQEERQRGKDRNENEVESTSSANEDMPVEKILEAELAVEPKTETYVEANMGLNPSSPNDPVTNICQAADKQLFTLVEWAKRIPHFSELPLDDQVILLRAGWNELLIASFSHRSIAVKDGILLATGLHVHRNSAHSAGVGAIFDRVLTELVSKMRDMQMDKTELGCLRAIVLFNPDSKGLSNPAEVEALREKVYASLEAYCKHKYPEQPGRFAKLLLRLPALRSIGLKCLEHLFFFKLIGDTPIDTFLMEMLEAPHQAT
Assay: cell-based
Settings: for FXR-dependent transcription, induction: 7.5 μM
Method: These experiments employed a mammalian cell culture system using Chinese hamster ovary cells (CHO) to evaluate the transcriptional function of Drosophila melanogaster EcR and USP using methods described previously (U.S. Patent Application Publication No: 2005/0049230; Henrich et al, 2003). Cells were seeded in 6-well polypropylene culture plates (Falcon) with 10^5 cells per well on the day prior to transfection. Transfection was subsequently performed using either calcium phosphate (Kitareewan et al., 1996, Mol. Biol. Cell, 7:1153-1196) or a GenePorter reagent (Gene Therapy Systems, Inc; San Diego, Calif.) following manufacturer's protocols. Each well received 1.25 μg of (EcRE)5-ΔMTV-CAT (five copies of the hsp27 EcRE inserted into an mouse mammary tumor virus (MTV) promoter upstream of the chloramphenicol acetyltransferase (CAT) gene) or (EcRE)5-ΔMTV-LUC (the same promoter attached to firefly luciferase), 1.25 μg of pCH111 (SV40 early promoter linked to the β-galactosidase gene) to normalize CAT activity, and 0.25 μg of each expression plasmid (EcR, FXR, RXR, USP) that was tested. The cells were incubated with plasmid DNA for seven hours and then washed with 1×PBS. Muristerone A (murA; Alexis Biochemicals) or 20-hydroxyecdysone (20E; Sigma) dissolved in ethanol to a concentration of 10 mM was diluted as necessary to the final assay concentration (FAC) in 2 ml of fresh incubation medium that was then applied to the cells. Similarly, JHIII (Sigma) was dissolved in dimethyl sulfoxide (DMSO) to a concentration of […] and diluted into the incubation medium to its final assay concentration (20, 40, 80, 160 μM). […] A corresponding volume of ethanol and DMSO were added to control cells for all experiments. For all experiments, the cells were allowed to incubate with the medium for 24 hours before collection and cell lysates were prepared by described methods (Kitareewan et al., 1996). Both β-galactosidase and CAT reporter activity were measured based on previously used methods (Kitareewan et al, 1996). Luciferase assays using luciferrin followed the specifications of the manufacturer.
Transcriptional activity, measured as ^14C-chloramphenicol counts (for measuring CAT activity) or relative luciferase activity (RLU) was quantified for each cell lysate. The counts were then normalized by adjusting for differences in β-galactosidase activity, since β-galactosidase expression is controlled by a constitutive promoter and provides an estimate of cell mass. Data were normalized as fold-induction based on differences in reporter gene activity between hormonally treated and control cells.
In these experiments, candidate juvenoids were tested for their ability to activate FXR mediated transcription by transfecting Chinese hamster ovary (CHO) cells using the FXR plasmid, mouse RXRα, and the ΔMTV-(EcRE)5-CAT reporter as described herein. An RXR-dependent CRBPII-CAT reporter plasmid was employed in parallel assays to discern activators specific for this receptor.

[1] = dose 20 μM, 1 = no increase over vehicle

5,11-dimethyltetrahydrochrysene
FXR-dependent activity, induction (dose not stated): activated

CCCCCc1cc(O)c2c(c1)OC(C)(C)[C@@H]1CC=C(C)C[C@@H]21 (single isomer, unassigned) [Δ^8-isomer]
FXR-dependent CAT activity, induction (15 μM): not

CC12CCC(CC1)C(C)(C)O2 [1,8-cineole]
FXR-dependent activity, induction (800 μM): two-fold
FXR ACTIVITY (fold-induction) (dose 400 μM): 2 fold-induction

OCCc1ccccc1O [2-hydroxyphenethyl alcohol, 2-hydroxyphenethlyl alcohol]
FXR-dependent activity, induction (400 μM): 3 fold

C=C(C)CCc1cc(OC)c(OC)cc1O [3,4-dimethoxy-6-isopentenylphenol]
FXR-dependent activity, induction (100 μM): 3 fold

OCCc1cccc(O)c1 [3-hydroxyphenethyl alcohol, 3-hydroxyphenethlyl alcohol]
FXR-dependent activity, induction (400 μM): 3 fold

OCCc1ccc(O)cc1 [4-hydroxyphenethyl alcohol, 4-hydroxyphenethlyl alcohol]
FXR-dependent activity, induction (400 μM): 3 fold

COc1cc2ccc(=O)oc2cc1O [7-hydroxy-6-methoxycoumarin]
FXR-dependent activity, induction (1 mM): ineffectiveness

CC(C)CCC[C@@H](C)[C@H]1CC[C@H]2[C@@H]3C(=O)C=C4C[C@@H](O)CC[C@]4(C)[C@H]3CC[C@]12C [7-ketocholesterol]
FXR-dependent transcription, induction: not

COc1ccc2ccc(=O)oc2c1 [7-methoxycoumarin]
FXR-dependent activity, induction (1 mM): 10 fold

CC(C)CCC[C@@H](C)[C@H]1CC[C@H]2[C@@H]3[C@H](O)C=C4C[C@@H](O)CC[C@]4(C)[C@H]3CC[C@]12C [7α-hydroxycholesterol]
FXR-dependent transcription, induction: not

Nc1ncnc2c1nc(Br)n2[C@@H]1O[C@@H]2COP(=O)(O)O[C@H]2[C@H]1O [8-Br-cAMP]
FXR-dependent activity, induction (1 mM): 4 fold

COc1c2occc2cc2ccc(=O)oc12 [8-methoxypsoralen]
FXR-dependent CAT activity, induction (50 μM): inactive

CC(C)=CCc1c(O)cc(O)c2c1O[C@H](c1ccc(O)cc1)CC2=O [8-prenylnaringenin]
FXR-dependent CAT activity, induction (20 μM): 38 fold
FXR ACTIVITY (fold-induction) [1]: 38 fold-induction

CC(C)CCC[C@](C)(O)[C@H]1CC[C@H]2[C@@H]3CC=C4C[C@@H](O)CC[C@]4(C)[C@H]3CC[C@@]21C [20α-hydroxycholesterol]
FXR-dependent transcription, induction: 10 fold

CC(C)CC[C@H](O)[C@@H](C)[C@H]1CC[C@H]2[C@@H]3CC=C4C[C@@H](O)CC[C@]4(C)[C@H]3CC[C@]12C [22S-hydroxycholesterol]
FXR-dependent transcription, induction: not

COc1cc(O)c(CC=C(C)C)c2c1C(=O)CC(c1ccc(O)cc1)O2 (stereo not shown) [Isoxanthohumol]
FXR-dependent CAT activity, induction (20 μM): 9 fold
FXR ACTIVITY (fold-induction) [1]: 9 fold-induction

CC(C)=CCC1=C(O)C(C(=O)CC(C)C)=C(O)C(CC=C(C)C)(CC=C(C)C)C1=O [Lupulone]
FXR-dependent CAT activity, induction (20 μM): inert
FXR ACTIVITY (fold-induction) [1]: 1 fold-induction

CC1=C[C@H]2[C@@]3(O)[C@H](C)[C@@H](O)[C@]4(O)[C@H]([C@@H]3C=C(CO)C[C@]2(O)C1=O)C4(C)C [Phorbol]
FXR-dependent activity, induction (dose not stated): inactive

CCCCCc1cc(O)c2c(c1)OC(C)(C)[C@@H]1CCC(C)=C[C@@H]21 [THC, 1-trans-Δ^9-tetrahydrocannabinol]
FXR-dependent CAT activity, induction (15 μM): 5 fold

COC1=C(OC)C(=O)C(CC=C(C)C)=C(C)C1=O [U1, Ubiquinone-1]
inhibition of farnesol-induced FXR-dependent activity (10 μM): completely inhibited

COC1=C(OC)C(=O)C(C/C=C(\C)CC/C=C(\C)CCC=C(C)C)=C(C)C1=O [U3]
FXR-dependent activity, induction (dose not stated): 5 fold

COC1=C(OC)C(=O)C(C/C=C(\C)CC/C=C(\C)CC/C=C(\C)CCC=C(C)C)=C(C)C1=O [U4]
FXR-dependent activity, induction (dose not stated): 3 fold

COC1=C(OC)C(=O)C(C/C=C(\C)CC/C=C(\C)CC/C=C(\C)CC/C=C(\C)CC/C=C(\C)CCC=C(C)C)=C(C)C1=O [U6]
FXR-dependent activity, induction (dose not stated): inactive

COC1=C(OC)C(=O)C(C/C=C(\C)CC/C=C(\C)CC/C=C(\C)CC/C=C(\C)CC/C=C(\C)CC/C=C(\C)CC/C=C(\C)CCC=C(C)C)=C(C)C1=O [U8]
FXR-dependent activity, induction (dose not stated): inactive

COC1=C(OC)C(=O)C(C/C=C(\C)CC/C=C(\C)CC/C=C(\C)CC/C=C(\C)CC/C=C(\C)CC/C=C(\C)CC/C=C(\C)CC/C=C(\C)CCC=C(C)C)=C(C)C1=O [U9]
FXR-dependent activity, induction (dose not stated): inactive

COC1=C(OC)C(=O)C(C/C=C(\C)CC/C=C(\C)CC/C=C(\C)CC/C=C(\C)CC/C=C(\C)CC/C=C(\C)CC/C=C(\C)CC/C=C(\C)CC/C=C(\C)CCC=C(C)C)=C(C)C1=O [U10]
FXR-dependent activity, induction (dose not stated): inactive

COc1cc(O)c(CC=C(C)C)c(O)c1C(=O)/C=C/c1ccc(O)cc1 [Xanthohumol]
FXR ACTIVITY (fold-induction) (dose not given, 1 = no increase over vehicle): 1 fold-induction
FXR-dependent activity, induction (dose not stated): not activated

CCOC(=O)C=C(C)CCCC(C)(Cl)CCCC(C)(C)Cl (stereo not shown) [ZR232, ethyl ester of 7,11-dichloro-2-ene farnesoic acid]
FXR-dependent CAT activity, induction (50 μM): 5 fold

Nc1ncnc2nc[nH]c12 [adenine]
FXR-dependent activity, induction (dose not stated): ineffective

C=CCc1cc(OC)c2c(c1OC)OCO2 [apiole]
FXR-dependent CAT activity, induction (250 μM): 4 fold

CC(C)=CCC/C(C)=C/COc1c2ccoc2cc2oc(=O)ccc12 [bergamotin]
FXR-dependent activity, induction (25 μM): 8 fold
FXR ACTIVITY (fold-induction) (dose 25 μM): 10 fold-induction

C=CCC1=C(C)C(OC(=O)[C@@H]2[C@@H](C=C(C)C)C2(C)C)CC1=O (stereo partly shown) [bioallethrin]
FXR-dependent activity, induction (25 μM): 14 fold

C[C@@]12CCc3occc3[C@H]1CC[C@@]13C[C@@H](CC[C@H]12)[C@@](O)(CO)C3 [cafestol]
FXR ACTIVITY (fold-induction) [1]: 12 fold-induction

O=C(O)/C=C/c1ccc(O)c(O)c1 [caffeic acid]
FXR-dependent CAT activity, induction (250 μM): inactive
FXR ACTIVITY (fold-induction) (dose 100 μM, 1 = no increase over vehicle): 1 fold-induction

CCCCCc1cc(O)c2c(c1)OC(C)(C)c1ccc(C)cc1-2 [cannabinol]
FXR-dependent CAT activity, induction (15 μM): not

CNC(=O)Oc1cccc2ccccc12 [carbaryl]
FXR-dependent activity, induction (dose not stated): inactive

ClC1=C(Cl)C2(Cl)C3C(Cl)C(Cl)CC3C1(Cl)C2(Cl)Cl (stereo not shown) [chlordane]
FXR-dependent CAT activity, induction (5 μM): 7 fold
FXR ACTIVITY (fold-induction) (dose 5 μM): 7 fold-induction

CCOCn1c(-c2ccc(Cl)cc2)c(C#N)c(Br)c1C(F)(F)F [chlorfenapyr]
FXR-dependent activity, induction (25 μM): 10 fold

CC(C)(O)/C=C/C(=O)[C@](C)(O)[C@H]1[C@H](O)C[C@@]2(C)[C@@H]3CC=C4[C@@H](C[C@H](O)C(=O)C4(C)C)[C@]3(C)C(=O)C[C@]12C [cucurbitacin D]
suppression of FXR-dependent activity promoted by CDCA (1 μM cucurbitacin D, 40 μM CDCA): 58 fold
suppression of FXR-dependent activity promoted by JH III (1 μM cucurbitacin D, 40 μM JH III): 7 fold
